Experimental data as given in patent publication US12447152B2, “Pharmaceutical combination of PRMT5 inhibitors” (Lupin Limited, priority 2019, dated 2025).

Experiments:
[1] = system: MIA PaCa-2 human pancreatic cancer xenograft; assay: In vivo efficacy study of Compound-24 with Afatinib, MIA PaCa-2 xenograft; set-up: species or system nude mice
Description: Compound-24 (1 mg/kg; b.i.d.), Afatinib (12.5 mg/kg; q.d.) and Compound-24+Afatinib (Compound-24; 1 mg/kg; b.i.d+Afatinib; 12.5 mg/kg; q.d.).

[2] = system: MIA PaCa-2 human pancreatic cancer xenograft; assay: In vivo efficacy study of Compound-24 with Ulixertinib (BVD-523), MIA PaCa-2 xenograft (tumor fragments); set-up: species or system nude mice; conditions: Compound-24 alone, 1 mg/kg b.i.d.
Description: MIA PaCa-2 tumor fragments were implanted subcutaneously in nude mice. […] Compound-24 (1 mg/kg; b.i.d.), BVD-523 (25 mg/kg; b.i.d.) and Compound-24+BVD-523 (Compound-24; 1 mg/kg; b.i.d+BVD-523; 25 mg/kg; b.i.d.).

[3] = system: MIA PaCa-2 human pancreatic cancer xenograft; assay: In vivo efficacy study of Compound-24 with BI-3406, MIA PaCa-2 xenograft; conditions: Compound-24 alone, 1 mg/kg; day 15
Description: The tumor-bearing mice were randomized once the tumors reached an average volume of approximately 155-159 mm^3 (Tumor volume range 107-248 mm^3).

In the case of CN(C)C/C=C/C(=O)Nc1cc2c(Nc3ccc(F)c(Cl)c3)ncnc2cc1O[C@H]1CCOC1 [Afatinib, (E)-N-(4-(3-chloro-4-fluoroanilino)-7-[(3S)-oxolan-3-yl)oxoquinazolin-6-yl)-4-(dimethylamino)but-2-enamide, reference compound], the “% tumor growth inhibition” value ([1]; Afatinib alone, 12.5 mg/kg q.d.) is reported as 58.68±5.14%.
With Nc1nc2cc(CCC3=C[C@@H](n4ccc5c(N)ncnc54)[C@H](O)[C@@H]3O)cc(F)c2cc1Cl [Compound-24, (1S,2R,5R)-3-(2-(2-Amino-3-chloro-5-fluoroquinolin-7-yl)ethyl)-5-(4-amino-7H-pyrrolo[2,3-d]pyrimidin-7-yl)cyclopent-3-ene-1,2-diol] the “% tumor growth inhibition” value ([1]; Compound-24 alone, 1 mg/kg b.i.d.) was 48.03±5.75%, the “% tumor growth inhibition” value [2] was 58.83±9.92% and the “% tumor growth inhibition” value [3] was 47.88±12.12%.
